Experimental data published in PubChem BioAssay (NCI).
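Cultured in 96-well plates, cells were exposed to test compound for 48 hours across five concentrations. GI50: concentration for 50% inhibition of growth. TGI marks complete inhibition of growth.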

What was measured:
Assay in all cases: NCI anticancer screen, dose series, 48 h
[1] = test system: HOP-62 NSCLC
[2] = test system: SW-620 colon
[3] = test system: OVCAR-8 ovarian
[4] = test system: NCI-H23 lung
[5] = test system: MOLT-4 leukemia
[6] = test system: SNB-19 CNS
[7] = test system: SK-MEL-5 melanoma
[8] = test system: NCI/ADR-RES ovarian
[9] = test system: SN12C renal
[10] = test system: NCI-H460 lung
[11] = test system: SF-268 CNS
[12] = test system: MCF7 breast
[13] = test system: UO-31 renal
[14] = test system: SK-MEL-28 melanoma
[15] = test system: SK-OV-3 ovarian
[16] = test system: NCI-H522 lung
[17] = test system: EKVX NSCLC
[18] = test system: HL-60(TB) leukemia
[19] = test system: UACC-62 melanoma
[20] = test system: OVCAR-5 ovarian
[21] = test system: BT-549 breast
[22] = test system: IGROV1 ovarian
[23] = test system: HS 578T breast
[24] = test system: LOX IMVI melanoma
[25] = test system: CCRF-CEM leukemia
[26] = test system: U251 CNS
[27] = test system: SK-MEL-2 melanoma
[28] = test system: OVCAR-4 ovarian

O=C(Nc1ncc(Cc2ccccc2)s1)c1ccc2c(c1)OCCCO2
GI50 [1]: 730 nM | TGI [1]: > 100000 nM | GI50 [2]: 444 nM | TGI [2]: > 100000 nM | GI50 [3]: 2010 nM | TGI [3]: > 100000 nM | GI50 [4]: 2430 nM | TGI [4]: > 100000 nM | GI50 [5]: 478 nM | TGI [5]: > 100000 nM | GI50 [6]: 1000 nM | TGI [6]: > 100000 nM | GI50 [7]: 424 nM | TGI [7]: 1960 nM | GI50 [8]: 547 nM | TGI [8]: > 100000 nM | GI50 [9]: 2120 nM | TGI [9]: > 100000 nM | GI50 [10]: 407 nM | TGI [10]: > 100000 nM | GI50 [11]: 1920 nM | TGI [11]: > 100000 nM | GI50 [12]: 374 nM | TGI [12]: > 100000 nM | GI50 [13]: 1420 nM | TGI [13]: > 100000 nM | GI50 [14]: 838 nM | TGI [14]: > 100000 nM | GI50 [15]: 3170 nM | TGI [15]: > 100000 nM | GI50 [16]: 1030 nM | TGI [16]: > 100000 nM | GI50 [17]: 1050 nM | TGI [17]: > 100000 nM | GI50 [18]: 330 nM | TGI [18]: > 51600 nM | GI50 [19]: 302 nM | TGI [19]: > 100000 nM | GI50 [20]: 11500 nM | TGI [20]: > 100000 nM | GI50 [21]: 1930 nM | TGI [21]: > 100000 nM | GI50 [22]: 880 nM | TGI [22]: > 100000 nM | GI50 [23]: 1140 nM | TGI [23]: > 100000 nM | GI50 [24]: 323 nM | TGI [24]: > 100000 nM | GI50 [25]: 524 nM | TGI [25]: > 100000 nM | GI50 [26]: 631 nM | TGI [26]: > 100000 nM | GI50 [27]: 1360 nM | TGI [27]: > 100000 nM | GI50 [28]: 5220 nM | TGI [28]: > 100000 nM
